Read-outs that look alike come from different tables or passages of the source.
Legend:
[1] = tested on: larvae of the mustard beetle (Phaedon cochleariae); assay: Phaedon test (PHAECO spray treatment); format: in vivo; conditions: 168 h, read-out: activity in %
Summary of the method: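 Mortality of mustard beetle larvae, expressed as percent killed (100% all, 0% none), assessed 7 days after spraying. Spray liquor made from compound in acetone plus dimethylformamide with alkylaryl polyglycol ether, diluted in emulsifier-containing water to the desired concentration.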

[2] = log P determination by HPLC on reversed-phase columns (EEC Directive 79/831 Annex V.A8); format: physicochemical; conditions: pH 2.7
Summary of the method: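 Calibration used unbranched alkan-2-ones of 3 to 16 carbons with known log P, values interpolated linearly from retention times between neighbouring standards. Acidic-range LC-MS run at pH 2.7, eluents aqueous and acetonitrile formic acid 0.1%, linear gradient 10% to 95% acetonitrile.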

[3] = tested on: green peach aphid (Myzus persicae); assay: Myzus test (MYZUPE spray treatment), Use Example 4; format: in vivo; conditions: 144 h, read-out: activity in %
Summary of the method: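 Compound was formulated in acetone/dimethylformamide with alkylaryl polyglycol ether emulsifier and diluted in emulsifier-containing water. It was sprayed onto Chinese cabbage leaf discs infested with all stages of Myzus persicae. Mortality (%) was scored after 6 days, where 100% means all aphids killed.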

[4] = tested on: caterpillars of the armyworm (Spodoptera frugiperda); assay: Spodoptera frugiperda test (SPODFR spray treatment); format: in vivo; conditions: 168 h, read-out: activity in %
Summary of the method: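 Percent caterpillar mortality read 7 days after infestation (0% none killed, 100% all killed). Treatment was a spray of the acetone/DMF/emulsifier formulation, water-diluted to test concentration, onto Zea mays leaf discs, allowed to dry before larvae were added.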

[5] = HPLC on reversed-phase columns (C 18), EEC Directive 79/831 Annex V.A8, read-out: logP

Row | SMILES | pest or weed control at 100 g/ha [1] | chromatographic logP [2, 5] | pest or weed control at 100 g/ha [3] | pest or weed control at 100 g/ha [4] | pest or weed control at 100 g/ha ([1]; 100 g/ha, after 7 days) | chromatographic logP [2] | pest or weed control at 100 g/ha ([3]; 100 g/ha, after 6 days) | pest or weed control at 100 g/ha ([4]; 100 g/ha, after 7 days)
1 | Cc1cc(Cl)cc(C(=O)NC(C)C2CC2)c1NC(=O)c1cc(Cn2cc(C(F)(F)C(F)(F)C(F)(F)F)nn2)nn1-c1ncccc1Cl (centres unmarked) [Example 327] | 100% | 4.15 | 100% | 100% |  |  |  | 
2 | CNC(=O)c1cc(Cl)cc(C)c1NC(=O)c1cc(Cn2cc(C(F)(F)C(F)(F)C(F)(F)F)nn2)nn1-c1ncccc1Cl [Example 328] | 100% | 3.38 | 100% | 100% |  |  |  | 
3 | Cc1cc(C#N)cc(C(=O)NC(C)C)c1NC(=O)c1cc(Cn2cc(C(F)(F)C(F)(F)C(F)(F)F)nn2)nn1-c1ncccc1Cl [Example 329] | 100% | 3.42 | 100% | 100% |  |  |  | 
4 | Cc1cc(C#N)cc(C(=O)NC(C)C2CC2)c1NC(=O)c1cc(Cn2cc(C(F)(F)C(F)(F)C(F)(F)F)nn2)nn1-c1ncccc1Cl (centres unmarked) [Example 331] | 100% | 3.71 | 100% | 100% |  |  |  | 
5 | Cc1cc(I)cc(C(N)=O)c1NC(=O)c1cc(Cn2cc(C(F)(F)C(F)(F)C(F)(F)F)nn2)nn1-c1ncccc1Cl [Example 332] | 100% | 3.35 | 100% | 100% |  |  |  | 
6 | CNC(=O)c1cc(I)cc(C)c1NC(=O)c1cc(Cn2cc(C(F)(F)C(F)(F)C(F)(F)F)nn2)nn1-c1ncccc1Cl [Example 337] | 100% | 3.59 | 100% | 100% |  |  |  | 
7 | Cc1cc(Cl)cc(C(N)=O)c1NC(=O)c1cc(Cn2cc(C(F)(F)C(F)(F)C(F)(F)F)nn2)nn1-c1ncccc1Cl [Example 338] | 100% | 3.13 | 100% | 100% |  |  |  | 
8 | Cc1cc(Cl)cc(C(=O)NC(C)(C)C)c1NC(=O)c1cc(Cn2cc(C(F)(F)C(F)(F)C(F)(F)F)nn2)nn1-c1ncccc1Cl [Example 339] | 100% | 4.21 | 90% | 100% |  |  |  | 
9 | Cc1cc(Cl)cc(C(=O)NC(C)C)c1NC(=O)c1cc(Cn2cc(C(F)(F)C(F)(F)C(F)(F)F)nn2)nn1-c1ncccc1Cl [Example 340] | 100% | 3.8 | 100% | 100% |  |  |  | 
10 | CCNC(=O)c1cc(Cl)cc(C)c1NC(=O)c1cc(Cn2cc(C(F)(F)C(F)(F)C(F)(F)F)nn2)nn1-c1ncccc1Cl [Example 341] | 100% | 3.62 | 100% | 100% |  |  |  | 
11 | Cc1cc(C#N)cc(C(=O)NC2CC2)c1NC(=O)c1cc(Cn2cc(C(F)(F)C(F)(F)C(F)(F)F)nn2)nn1-c1ncccc1Cl [Example 342] | 100% | 3.22 | 100% | 100% |  |  |  | 
12 | CNC(=O)c1cc(C#N)cc(C)c1NC(=O)c1cc(Cn2cc(C(F)(F)C(F)(F)C(F)(F)F)nn2)nn1-c1ncccc1Cl [Example 343] | 100% | 3.04 | 100% | 100% |  |  |  | 
13 | CSC[C@H](C)NC(=O)c1cc(I)cc(C)c1NC(=O)c1cc(Cn2ncc(C(F)(F)C(F)(F)F)n2)nn1-c1ncccc1Cl [Example 344] |  |  |  |  | 100% | 4.34 | 100% | 100%
14 | CSC[C@H](C)NC(=O)c1cc(Cl)cc(C)c1NC(=O)c1cc(Cn2ncc(C(F)(F)C(F)(F)F)n2)nn1-c1ncccc1Cl [Example 348] |  |  |  |  | 100% | 4.1 | 80% | 100%
15 | Cc1cc(Cl)cc(C(=O)NCC2CC2)c1NC(=O)c1cc(Cn2ncc(C(F)(F)C(F)(F)F)n2)nn1-c1ncccc1Cl [Example 349] |  |  |  |  | 100% | 3.96 | 80% | 100%
16 | CCNC(=O)c1cc(Cl)cc(C)c1NC(=O)c1cc(Cn2ncc(C(F)(F)C(F)(F)F)n2)nn1-c1ncccc1Cl [Example 350] |  |  |  |  | 100% | 3.66 | 80% | 100%
17 | CNC(=O)c1cc(Cl)cc(C)c1NC(=O)c1cc(Cn2ncc(C(F)(F)C(F)(F)F)n2)nn1-c1ncccc1Cl [Example 352] |  |  |  |  | 100% | 3.4 | 80% | 100%
18 | Cc1cc(C#N)cc(C(=O)NC2CC2)c1NC(=O)c1cc(Cn2ncc(C(F)(F)C(F)(F)F)n2)nn1-c1ncccc1Cl [Example 353] |  |  |  |  | 100% | 3.25 | 100% | 100%
19 | Cc1cc(I)cc(C(=O)NC(C)(C)C)c1NC(=O)c1cc(Cn2ncc(C(F)(F)C(F)(F)F)n2)nn1-c1ncccc1Cl [Example 356] |  |  |  |  | 100% | 4.47 | 80% | 100%
20 | CNC(=O)c1cc(I)cc(C)c1NC(=O)c1cc(Cn2ncc(C(F)(F)C(F)(F)F)n2)nn1-c1ncccc1Cl [Example 358] |  |  |  |  | 100% | 3.64 | 80% | 100%
21 | Cc1cc(Cl)cc(C(N)=O)c1NC(=O)c1cc(Cn2ncc(C(F)(F)C(F)(F)F)n2)nn1-c1ncccc1Cl [Example 359] |  |  |  |  | 100% | 3.12 | 100% | 100%
22 | Cc1cc(Cl)cc(C(=O)NC(C)(C)C)c1NC(=O)c1cc(Cn2ncc(C(F)(F)C(F)(F)F)n2)nn1-c1ncccc1Cl [Example 360] |  |  |  |  | 100% | 4.27 | 80% | 100%
23 | Cc1cc(Cl)cc(C(=O)NC(C)C)c1NC(=O)c1cc(Cn2ncc(C(F)(F)C(F)(F)F)n2)nn1-c1ncccc1Cl [Example 361] |  |  |  |  | 100% | 3.89 | 80% | 100%
24 | Cc1cc(Cl)cc(C(=O)NC2CC2)c1NC(=O)c1cc(Cn2ncc(C(F)(F)C(F)(F)F)n2)nn1-c1ncccc1Cl [Example 362] |  |  |  |  | 100% | 3.62 | 80% | 100%
25 | CCNC(=O)c1cc(C#N)cc(C)c1NC(=O)c1cc(Cn2ncc(C(F)(F)C(F)(F)F)n2)nn1-c1ncccc1Cl [Example 363] |  |  |  |  | 100% | 3.26 | 100% | 100%
26 | Cc1cc(C#N)cc(C(=O)NC(C)C)c1NC(=O)c1cc(Cn2ncc(C(F)(F)C(F)(F)F)n2)nn1-c1ncccc1Cl [Example 364] |  |  |  |  | 100% | 3.52 | 100% | 100%

— patent US8536202B2, “Triazole-substituted anthranilamides as pesticides” (Bayer Cropscience AG, priority 2010, dated 2013)
